The NIST ThermoML archive (doi:10.1021/je4008298)
± gives the expanded uncertainty stated by the source.

Assay: mn = molality of the nth substance listed, in mol/kg
Conditions: for viscosity / mass density: 101.3 kPa, Liquid; for viscosity: Capillary tube (Ostwald / Ubbelohde) method; for surface tension liquid-gas: Pendant drop shape

NC(CO)CO [2-amino-1,3-propanediol] + O
viscosity (293.2 K, m1 = 0.953): 1.244 ± 0.018 mPa·s | viscosity (293.2 K, m1 = 2.052): 1.606 ± 0.02 mPa·s | viscosity (293.2 K, m1 = 3.464): 2.157 ± 0.024 mPa·s | viscosity (293.2 K, m1 = 4.693): 2.784 ± 0.027 mPa·s | mass density (293.2 K, m1 = 0.953): 1012.63 ± 0.72 kg/m3 | mass density (293.2 K, m1 = 2.052): 1026.97 ± 0.74 kg/m3 | mass density (293.2 K, m1 = 3.464): 1041.67 ± 0.76 kg/m3 | mass density (293.2 K, m1 = 4.693): 1052.77 ± 0.79 kg/m3 | surface tension liquid-gas (298.2 K, m1 = 0.959): 71.7 ± 0.6 mN/m | surface tension liquid-gas (298.2 K, m1 = 2.151): 71.3 ± 0.6 mN/m | surface tension liquid-gas (298.2 K, m1 = 3.459): 70.8 ± 0.6 mN/m | surface tension liquid-gas (298.2 K, m1 = 4.745): 70.4 ± 0.6 mN/m | viscosity (300.2 K, m1 = 0.953): 1.056 ± 0.018 mPa·s | viscosity (300.2 K, m1 = 2.052): 1.335 ± 0.019 mPa·s | viscosity (300.2 K, m1 = 3.464): 1.769 ± 0.021 mPa·s | viscosity (300.2 K, m1 = 4.693): 2.261 ± 0.024 mPa·s | mass density (300.2 K, m1 = 0.953): 1010.28 ± 0.77 kg/m3 | mass density (300.2 K, m1 = 2.052): 1024.18 ± 0.79 kg/m3 | mass density (300.2 K, m1 = 3.464): 1038.8 ± 0.81 kg/m3 | mass density (300.2 K, m1 = 4.693): 1050.01 ± 0.83 kg/m3 | viscosity (307.2 K, m1 = 0.953): 0.896 ± 0.017 mPa·s | viscosity (307.2 K, m1 = 2.052): 1.118 ± 0.018 mPa·s | viscosity (307.2 K, m1 = 3.464): 1.458 ± 0.02 mPa·s | viscosity (307.2 K, m1 = 4.693): 1.845 ± 0.022 mPa·s | mass density (307.2 K, m1 = 0.953): 1008.07 ± 0.82 kg/m3 | mass density (307.2 K, m1 = 2.052): 1021.61 ± 0.84 kg/m3 | mass density (307.2 K, m1 = 3.464): 1036.8 ± 0.86 kg/m3 | mass density (307.2 K, m1 = 4.693): 1047.38 ± 0.88 kg/m3 | surface tension liquid-gas (313.2 K, m1 = 0.959): 69.4 ± 0.6 mN/m | surface tension liquid-gas (313.2 K, m1 = 2.151): 69 ± 0.6 mN/m | surface tension liquid-gas (313.2 K, m1 = 3.459): 68.6 ± 0.6 mN/m | surface tension liquid-gas (313.2 K, m1 = 4.745): 68.3 ± 0.6 mN/m | viscosity (313.2 K, m1 = 0.953): 0.8 ± 0.017 mPa·s | viscosity (313.2 K, m1 = 2.052): 0.983 ± 0.017 mPa·s | viscosity (313.2 K, m1 = 3.464): 1.275 ± 0.018 mPa·s | viscosity (313.2 K, m1 = 4.693): 1.588 ± 0.02 mPa·s | mass density (313.2 K, m1 = 0.953): 1005.49 ± 0.86 kg/m3 | mass density (313.2 K, m1 = 2.052): 1019.22 ± 0.88 kg/m3 | mass density (313.2 K, m1 = 3.464): 1033.49 ± 0.91 kg/m3 | mass density (313.2 K, m1 = 4.693): 1044.53 ± 0.92 kg/m3
